In ChEMBL document CHEMBL5233229, “Recent advances in the development of ubiquitin-specific-processing protease 7 (USP7) inhibitors” (Eur J Med Chem, 2020):
≈ marks a conversion by molar mass, not a printed value. One block for each molecule: values may come before it.

Columns and labels:
HCT-116 [1] = assay: Anticancer activity against human HCT-116 cells assessed as cell growth inhibition; type: functional, cell-based
[2] = target: T1, Ubiquitin carboxyl-terminal hydrolase 7 (Homo sapiens, UniProt Q93009); assay: Inhibition of human his tagged USP7 (208 to 560 residues) expressed in insect sf9 cells using monoubiquitinated ubiquitin-rhodamine as substrate assessed as dissociation constant incubated for 1 hrs by fluorescence based assay
Target sequence in this assay (Q93009 whole entry, the tested form may be a part): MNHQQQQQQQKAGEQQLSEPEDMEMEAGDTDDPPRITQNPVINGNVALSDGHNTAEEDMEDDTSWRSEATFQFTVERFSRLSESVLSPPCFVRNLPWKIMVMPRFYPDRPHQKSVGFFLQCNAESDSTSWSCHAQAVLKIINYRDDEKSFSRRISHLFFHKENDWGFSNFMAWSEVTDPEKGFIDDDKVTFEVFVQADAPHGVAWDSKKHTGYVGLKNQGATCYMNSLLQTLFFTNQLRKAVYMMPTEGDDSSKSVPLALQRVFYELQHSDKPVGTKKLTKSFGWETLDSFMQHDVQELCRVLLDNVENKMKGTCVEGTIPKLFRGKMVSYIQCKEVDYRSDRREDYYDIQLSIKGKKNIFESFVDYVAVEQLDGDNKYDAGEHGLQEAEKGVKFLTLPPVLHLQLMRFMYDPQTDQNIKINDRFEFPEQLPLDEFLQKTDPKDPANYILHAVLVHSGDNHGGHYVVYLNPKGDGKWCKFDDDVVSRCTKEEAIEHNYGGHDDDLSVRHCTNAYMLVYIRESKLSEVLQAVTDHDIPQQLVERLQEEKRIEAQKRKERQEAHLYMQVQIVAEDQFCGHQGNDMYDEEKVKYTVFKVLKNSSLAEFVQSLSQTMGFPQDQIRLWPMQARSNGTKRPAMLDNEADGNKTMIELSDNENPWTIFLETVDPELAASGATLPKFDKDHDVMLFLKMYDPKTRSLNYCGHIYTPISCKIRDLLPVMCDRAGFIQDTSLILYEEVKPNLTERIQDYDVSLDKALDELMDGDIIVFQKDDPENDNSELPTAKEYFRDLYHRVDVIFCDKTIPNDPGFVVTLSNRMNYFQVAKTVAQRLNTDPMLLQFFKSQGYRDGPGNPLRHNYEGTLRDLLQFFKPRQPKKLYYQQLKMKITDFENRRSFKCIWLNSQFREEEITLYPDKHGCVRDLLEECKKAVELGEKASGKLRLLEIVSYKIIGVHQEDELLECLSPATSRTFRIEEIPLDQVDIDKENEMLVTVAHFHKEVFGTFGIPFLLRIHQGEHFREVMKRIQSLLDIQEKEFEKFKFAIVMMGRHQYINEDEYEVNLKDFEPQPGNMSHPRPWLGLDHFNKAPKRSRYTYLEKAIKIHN

[3] = target: T1, Ubiquitin carboxyl-terminal hydrolase 7; assay: Inhibition of human his tagged USP7 (208 to 560 residues) expressed in insect sf9 cells using monoubiquitinated ubiquitin-rhodamine as substrate assessed as ratio of Kinact/Ki incubated for 1 hrs by fluorescence based assay
Target sequence in this assay (Q93009 whole entry, looked up, the tested form may be a part): as the sequence (Q93009 whole entry, the tested form may be a part) above

[4] = target: T1, Ubiquitin carboxyl-terminal hydrolase 7; assay: Inhibition of human USP7 by SPR analysis
Target sequence in this assay (Q93009 whole entry, the tested form may be a part): as above

[5] = target: T1, Ubiquitin carboxyl-terminal hydrolase 7; assay: Inhibition of human USP7 using Ub-Rho110 as substrate by fluorescence based SPR analysis
Target sequence in this assay (Q93009 whole entry, the tested form may be a part): as above

[6] = Aqueous solubility of compound; type: physicochemical
[7] = target: Ubiquitin carboxyl-terminal hydrolase 9X (Homo sapiens, UniProt Q93008); assay: Inhibition of USP9x (unknown origin)
[8] = target: T2, Ubiquitin carboxyl-terminal hydrolase 14 (Homo sapiens, UniProt P54578); assay: Inhibition of human his tagged USP14 by SPR analysis
T2 sequence (P54578 whole entry): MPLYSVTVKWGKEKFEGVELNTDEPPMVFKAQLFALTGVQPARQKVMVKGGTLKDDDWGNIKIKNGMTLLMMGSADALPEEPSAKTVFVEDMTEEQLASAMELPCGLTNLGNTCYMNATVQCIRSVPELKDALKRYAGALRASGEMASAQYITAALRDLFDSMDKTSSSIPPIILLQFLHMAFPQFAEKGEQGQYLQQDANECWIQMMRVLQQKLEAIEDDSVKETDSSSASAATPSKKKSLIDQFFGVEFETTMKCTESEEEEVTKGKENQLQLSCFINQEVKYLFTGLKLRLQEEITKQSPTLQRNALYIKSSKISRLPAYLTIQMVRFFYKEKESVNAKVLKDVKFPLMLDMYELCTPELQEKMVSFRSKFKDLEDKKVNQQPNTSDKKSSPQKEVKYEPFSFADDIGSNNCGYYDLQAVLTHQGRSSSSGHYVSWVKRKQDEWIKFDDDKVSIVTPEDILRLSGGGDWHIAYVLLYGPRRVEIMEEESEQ

[9] = target: T3, Ubiquitin carboxyl-terminal hydrolase isozyme L5 (Homo sapiens, UniProt Q9Y5K5); assay: Inhibition of human his tagged UCHL5 assessed as dissociation constant by SPR analysis
T3 sequence (Q9Y5K5 whole entry): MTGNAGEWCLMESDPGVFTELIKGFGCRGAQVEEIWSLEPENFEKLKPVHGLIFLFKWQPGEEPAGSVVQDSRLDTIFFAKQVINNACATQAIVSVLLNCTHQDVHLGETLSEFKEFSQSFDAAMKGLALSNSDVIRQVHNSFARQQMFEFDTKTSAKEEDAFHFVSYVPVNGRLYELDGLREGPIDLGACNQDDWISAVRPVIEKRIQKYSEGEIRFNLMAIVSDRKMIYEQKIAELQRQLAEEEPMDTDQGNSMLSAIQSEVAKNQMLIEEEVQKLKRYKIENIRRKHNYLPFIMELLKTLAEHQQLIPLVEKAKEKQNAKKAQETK

[10] = target: T2, Ubiquitin carboxyl-terminal hydrolase 14; assay: Inhibition of human his tagged USP14 assessed as dissociation constant by SPR analysis
[11] = target: T4, Ubiquitin carboxyl-terminal hydrolase isozyme L1 (Homo sapiens, UniProt P09936); assay: Inhibition of human his tagged UCH-L1 by Westernblot analysis
T4 sequence (P09936 whole entry): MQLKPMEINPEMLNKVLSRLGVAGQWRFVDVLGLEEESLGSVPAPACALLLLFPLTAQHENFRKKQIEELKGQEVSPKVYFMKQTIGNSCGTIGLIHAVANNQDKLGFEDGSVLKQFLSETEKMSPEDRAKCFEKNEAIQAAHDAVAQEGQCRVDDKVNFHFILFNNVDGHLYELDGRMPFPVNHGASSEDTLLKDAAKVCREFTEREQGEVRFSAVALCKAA

[12] = target: Ubiquitin carboxyl-terminal hydrolase 20 (Homo sapiens, UniProt Q9Y2K6); assay: Inhibition of human his tagged USP20 by Westernblot analysis
Chain of Ubiquitin carboxyl-terminal hydrolase 20 (Q9Y2K6 whole entry): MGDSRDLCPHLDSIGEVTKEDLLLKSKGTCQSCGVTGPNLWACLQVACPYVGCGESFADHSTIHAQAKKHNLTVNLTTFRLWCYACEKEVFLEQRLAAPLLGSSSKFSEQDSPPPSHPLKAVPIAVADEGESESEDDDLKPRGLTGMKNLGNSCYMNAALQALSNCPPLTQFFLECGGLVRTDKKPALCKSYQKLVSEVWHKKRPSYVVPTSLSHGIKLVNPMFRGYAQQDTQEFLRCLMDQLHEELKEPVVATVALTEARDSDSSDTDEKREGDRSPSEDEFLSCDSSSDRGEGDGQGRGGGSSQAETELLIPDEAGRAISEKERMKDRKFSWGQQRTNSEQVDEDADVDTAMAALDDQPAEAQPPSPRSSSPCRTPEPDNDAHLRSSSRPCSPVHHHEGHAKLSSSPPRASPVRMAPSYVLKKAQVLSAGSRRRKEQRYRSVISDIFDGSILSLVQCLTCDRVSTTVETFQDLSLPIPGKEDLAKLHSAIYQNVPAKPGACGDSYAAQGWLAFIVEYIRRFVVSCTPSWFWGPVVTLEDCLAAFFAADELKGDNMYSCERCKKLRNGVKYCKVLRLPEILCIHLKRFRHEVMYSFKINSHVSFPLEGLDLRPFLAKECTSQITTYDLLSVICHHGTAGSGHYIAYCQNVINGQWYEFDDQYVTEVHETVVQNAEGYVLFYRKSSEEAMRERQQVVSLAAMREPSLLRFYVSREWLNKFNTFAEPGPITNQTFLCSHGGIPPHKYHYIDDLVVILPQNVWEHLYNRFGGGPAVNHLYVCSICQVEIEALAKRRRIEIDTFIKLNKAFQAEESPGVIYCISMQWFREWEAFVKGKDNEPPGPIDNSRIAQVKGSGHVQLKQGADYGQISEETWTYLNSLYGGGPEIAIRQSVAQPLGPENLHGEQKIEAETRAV

[13] = target: T5, Ubiquitin carboxyl-terminal hydrolase isozyme L3 (Homo sapiens, UniProt P15374); assay: Inhibition of human his tagged UCH-L3 by Westernblot analysis
T5 sequence (P15374 whole entry): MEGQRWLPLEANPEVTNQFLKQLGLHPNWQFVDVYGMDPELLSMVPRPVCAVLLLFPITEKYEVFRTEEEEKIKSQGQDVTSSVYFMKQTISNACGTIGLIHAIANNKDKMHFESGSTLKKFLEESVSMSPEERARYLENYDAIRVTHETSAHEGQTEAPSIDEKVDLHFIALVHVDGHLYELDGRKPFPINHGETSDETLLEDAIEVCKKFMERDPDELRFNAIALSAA

[14] = target: T6, Ubiquitin carboxyl-terminal hydrolase 2 (Homo sapiens, UniProt O75604); assay: Inhibition of human his tagged USP2 by Westernblot analysis
T6 sequence (O75604 whole entry): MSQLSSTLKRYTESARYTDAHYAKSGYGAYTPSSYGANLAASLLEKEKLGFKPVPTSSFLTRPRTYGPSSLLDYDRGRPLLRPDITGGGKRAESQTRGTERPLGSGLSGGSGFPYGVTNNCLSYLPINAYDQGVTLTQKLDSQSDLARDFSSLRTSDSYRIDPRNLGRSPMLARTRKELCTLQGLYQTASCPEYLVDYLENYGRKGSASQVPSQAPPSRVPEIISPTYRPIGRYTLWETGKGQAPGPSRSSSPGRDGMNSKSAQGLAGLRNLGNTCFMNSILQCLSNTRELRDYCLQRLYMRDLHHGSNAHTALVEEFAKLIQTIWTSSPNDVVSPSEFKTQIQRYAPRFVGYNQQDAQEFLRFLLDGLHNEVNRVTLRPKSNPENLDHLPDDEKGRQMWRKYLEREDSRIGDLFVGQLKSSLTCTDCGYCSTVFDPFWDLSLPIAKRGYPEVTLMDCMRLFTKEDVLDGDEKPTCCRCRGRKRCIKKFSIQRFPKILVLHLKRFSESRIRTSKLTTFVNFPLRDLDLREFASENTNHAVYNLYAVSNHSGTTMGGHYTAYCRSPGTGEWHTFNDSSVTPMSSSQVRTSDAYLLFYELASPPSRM

[15] = target: T7, Ubiquitin carboxyl-terminal hydrolase 5 (Homo sapiens, UniProt P45974); assay: Inhibition of human his tagged USP5 by Westernblot analysis
T7 sequence (P45974 whole entry): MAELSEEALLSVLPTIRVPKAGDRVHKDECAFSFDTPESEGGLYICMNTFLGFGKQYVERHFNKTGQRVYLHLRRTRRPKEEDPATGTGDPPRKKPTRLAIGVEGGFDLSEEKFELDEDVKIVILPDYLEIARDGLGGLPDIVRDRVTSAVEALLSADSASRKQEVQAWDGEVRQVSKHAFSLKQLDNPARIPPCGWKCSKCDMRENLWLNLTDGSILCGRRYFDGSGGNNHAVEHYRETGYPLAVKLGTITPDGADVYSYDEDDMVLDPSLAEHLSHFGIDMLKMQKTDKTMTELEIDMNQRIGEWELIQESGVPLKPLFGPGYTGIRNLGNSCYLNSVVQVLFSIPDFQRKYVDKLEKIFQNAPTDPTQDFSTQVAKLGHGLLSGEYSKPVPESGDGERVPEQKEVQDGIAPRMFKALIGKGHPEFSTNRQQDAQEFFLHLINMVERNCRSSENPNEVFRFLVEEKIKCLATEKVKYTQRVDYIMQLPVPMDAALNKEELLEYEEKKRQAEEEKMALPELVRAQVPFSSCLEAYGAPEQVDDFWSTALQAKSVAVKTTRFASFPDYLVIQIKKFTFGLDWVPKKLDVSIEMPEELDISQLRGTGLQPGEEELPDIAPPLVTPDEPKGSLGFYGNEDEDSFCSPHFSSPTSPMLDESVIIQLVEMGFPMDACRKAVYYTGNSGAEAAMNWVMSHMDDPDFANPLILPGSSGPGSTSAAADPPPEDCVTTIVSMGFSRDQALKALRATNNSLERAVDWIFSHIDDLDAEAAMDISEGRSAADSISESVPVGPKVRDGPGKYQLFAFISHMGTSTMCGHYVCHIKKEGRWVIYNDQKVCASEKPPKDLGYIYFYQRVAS

[16] = target: T8, Ubiquitin carboxyl-terminal hydrolase 8 (Homo sapiens, UniProt P40818); assay: Inhibition of human his tagged USP8 by Westernblot analysis
T8 sequence (P40818 whole entry): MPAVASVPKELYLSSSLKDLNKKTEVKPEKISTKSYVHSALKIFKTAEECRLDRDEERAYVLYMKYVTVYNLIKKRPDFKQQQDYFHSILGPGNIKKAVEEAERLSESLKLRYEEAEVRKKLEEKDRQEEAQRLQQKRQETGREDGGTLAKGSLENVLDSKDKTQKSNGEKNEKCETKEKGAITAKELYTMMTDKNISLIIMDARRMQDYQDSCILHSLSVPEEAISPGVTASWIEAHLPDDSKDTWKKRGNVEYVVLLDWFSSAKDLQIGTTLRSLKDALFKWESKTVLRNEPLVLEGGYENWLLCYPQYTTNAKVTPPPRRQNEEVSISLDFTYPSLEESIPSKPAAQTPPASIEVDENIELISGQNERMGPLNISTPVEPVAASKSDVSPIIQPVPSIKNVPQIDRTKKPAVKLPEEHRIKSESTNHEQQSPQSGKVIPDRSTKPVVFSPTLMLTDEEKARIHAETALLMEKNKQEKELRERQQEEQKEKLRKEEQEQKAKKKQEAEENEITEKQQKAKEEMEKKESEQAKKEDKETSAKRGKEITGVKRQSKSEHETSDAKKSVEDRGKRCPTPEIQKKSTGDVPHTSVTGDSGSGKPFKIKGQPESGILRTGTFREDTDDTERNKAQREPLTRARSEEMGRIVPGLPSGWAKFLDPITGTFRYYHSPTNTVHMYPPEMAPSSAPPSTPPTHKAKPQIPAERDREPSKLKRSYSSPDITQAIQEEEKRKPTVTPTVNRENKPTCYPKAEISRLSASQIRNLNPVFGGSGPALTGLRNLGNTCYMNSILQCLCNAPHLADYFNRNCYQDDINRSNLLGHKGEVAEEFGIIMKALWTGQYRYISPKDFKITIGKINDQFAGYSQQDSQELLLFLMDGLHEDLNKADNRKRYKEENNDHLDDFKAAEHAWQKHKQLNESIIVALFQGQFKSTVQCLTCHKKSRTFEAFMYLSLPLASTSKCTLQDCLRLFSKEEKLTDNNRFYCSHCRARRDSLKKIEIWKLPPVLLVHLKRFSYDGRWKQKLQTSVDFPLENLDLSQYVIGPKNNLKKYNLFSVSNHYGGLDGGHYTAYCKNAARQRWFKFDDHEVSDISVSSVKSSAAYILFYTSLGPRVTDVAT

[17] = target: T2, Ubiquitin carboxyl-terminal hydrolase 14; assay: Inhibition of human USP14 using Ub-PA as substrate assessed as deubiquitination level incubated for 1 hr by SDS-PAGE assay
[18] = target: T7, Ubiquitin carboxyl-terminal hydrolase 5; assay: Inhibition of human USP5 using Ub-PA as substrate assessed as deubiquitination level incubated for 1 hr by SDS-PAGE assay
[19] = target: Ubiquitin carboxyl-terminal hydrolase 24 (Homo sapiens, UniProt Q9UPU5); assay: Inhibition of USP24 (unknown origin)
[20] = target: T1, Ubiquitin carboxyl-terminal hydrolase 7; assay: Inhibition of human his tagged USP7 (208 to 560 residues) catalytic domain expressed in insect sf9 cells using monoubiquitinated ubiquitin-rhodamine as substrate incubated for 1 hrs by fluorescence based assay
Target sequence in this assay (Q93009 whole entry, the tested form may be a part): as the sequence (Q93009 whole entry, the tested form may be a part) above

MM1.S = assay: Anticancer activity against human MM1.S cells assessed as cell growth inhibition incubated for 120 hrs by CellTiter-Glo assay; type: functional, cell-based
HCT-116 [21] = assay: Anticancer activity against human HCT-116 cells assessed as cell growth inhibition incubated for 72 hrs by CellTiter Glo assay; type: functional, cell-based; details: HCT-116, 72 h
[22] = target: T6, Ubiquitin carboxyl-terminal hydrolase 2; assay: Inhibition of human USP2 using Di-Ub IQF as substrate incubated for 15 mins by K63-2 assay
[23] = target: T8, Ubiquitin carboxyl-terminal hydrolase 8; assay: Inhibition of human USP8 using Di-Ub IQF as substrate incubated for 15 mins by K63-2 assay

IC50 (HCT-116 [1]): 2000 nM
SMILES: CN(CCCNC(=O)c1ccc2nc3c(c(Cl)c2c1)CCCC3)Cc1ccccc1

Kd [2]: 7800 nM | Ratio [3]: 66 M⁻¹ s⁻¹ | IC50 [4]: 65 nM
SMILES: C=CS(=O)(=O)Nc1ccccc1-c1ccc(C(=O)N2CCC(O)(Cn3cnc4c(cnn4-c4ccc(F)cc4)c3=O)CC2)cc1

IC50 [5]: 1.5 nM
SMILES: NCc1ccc(-c2[nH]nc3c(=O)n(CC4(O)CCN(C(=O)C[C@H](c5ccccc5)C(F)(F)F)CC4)cnc23)cc1

solubility [6]: 2.3 µM (≈ 0.884 µg/mL) | IC50 [7]: 2500 nM
SMILES: CCC[C@H](NC(=O)/C(C#N)=C/c1cccc(Br)n1)c1ccccc1

IC50 [11]: > 200000 nM | IC50 [12]: > 200000 nM | IC50 [13]: > 200000 nM | IC50 [14]: > 200000 nM | IC50 [15]: > 200000 nM | IC50 [16]: > 200000 nM
SMILES: O=C(NCCc1ccc(Cl)cc1)c1ccc2nc3c(c(Cl)c2c1)CCCC3

EC50 (HCT-116 [21]): 3600 nM | IC50 [22]: 1100 nM | IC50 [23]: 950 nM
SMILES: Cc1ccc(S(=O)(=O)Nc2cc(C(F)(F)F)ccc2C(=O)Nc2nc(-c3ccccc3)cs2)cc1

The remaining lines, values behind:

SMILES: C=CC(=O)N1CC/C(=C\c2ccc(F)c([N+](=O)[O-])c2)C(=O)/C(=C/c2ccc(F)c([N+](=O)[O-])c2)C1
IC5 [8]: 10 µM | Kd [9]: 1500 nM | Kd [10]: 14000 nM

SMILES: Cc1cc(C(=O)CN2CCCCC2)c(C)n1-c1ccc(F)cc1
IC50 [17]: 680 nM | IC50 [18]: 29100 nM

SMILES: CCCC(NC(=O)/C(C#N)=C/c1nc(Cl)ccc1Cl)c1ccc(OCCN2CCOCC2)cc1 (centres undefined)
IC50 [19]: 2500 nM

SMILES: O=C(C[C@@H](C(F)F)n1ccc(F)n1)N1CCC(O)(Cn2cnc3c(cnn3-c3ccc(F)cc3)c2=O)CC1
IC50 [20]: 69 nM | IC50 (MM1.S): 33 nM
